Series [1] has as its system HCC-38 triple negative breast cancer cells. The experiment in a line: SRB cell viability, HCC-38 cells infected with AR adenovirus. The note with it: 3 days. The class given is cell-based. On the procedure: The SRB assay was used to determine cell number during cytotoxocity experiments. The following protocol was used: • 1. Cells were detached with 0.25% trypsin. • 2. Experimental cultures were cultured in 96-well microtiter plates (200 μL growth medium per well; 1,000-200,000 cells per well). • 3. Cultures were fixed with 50 μL 50% TCA (4° C.). (see cell fixation protocol for details). • 4. Fixed cells were stained with 50 μL 0.4% (wt/vol) SRB in 1% acetic acid for 10 minutes. • 5. SRB was removed and the cultures were quickly* rinsed 5 times with 1% acetic acid to remove unbound dye.** • 6. Cultures were air-dried overnight until there was no visible moisture. • 7. The cellular protein-bound SRB was dissolved with 200 μL unbuffered Tris base (10 mM, pH 10.5) for 30 minutes on a rocking platform shaker. • 8. Absorbance was read at 540 nm. * quickly performing rinsing process was to prevent desorption of protein-bound SRB ** completely removed residual wash solution by sharply flicking plates over sink.
The following protocol was used for fixing cells: • a. 50 μL of 50% TCA (4° C.) was gently layered on the top of growth medium in each well to make a final TCA concentration of 10%. • b. Cultures were incubated at 4° C. for 1 hour. • c. Cultures were washed 5 times with tap water to remove TCA, growth medium, low-molecular-weight metabolites, and serum protein. • d. […]

Series [2] in a line: Completed and ongoing clinical studies, tolerability. The class given is in vivo, human. The note with it: single doses up to 100 mg, multiple doses up to 30 mg once daily up to 14 days. From the text:
These include: 1. Protocol G100401, a Phase 1 single ascending dose study in 96 healthy, young, male volunteers; 2. Protocol G100402, a Phase 1 multiple ascending dose study in 50 healthy, young, male volunteers, and 23 elderly male volunteers with truncal obesity; 3. Protocol G100503, a Phase 1 single dose pharmacokinetic study to assess the effect of a dosage regimen that simulates a sustained release formulation to an immediate release formulation in 18 healthy, young male volunteers and 18 postmenopausal women; 4. Protocol G100506, a Phase 1 single dose pharmacokinetic study to assess the relative bioavailability of a 3 mg hard shell capsule formulation to be used during continued clinical development and to assess the effect of food on the pharmacokinetics of the 3 mg softgel formulation in 27 healthy, young, male volunteers; 5. Protocol 006, a Phase 1 single dose and multiple dose pharmacokinetic study in 24 postmenopausal, Japanese women; 6. Protocol G200501, a Phase 2 study in 60 postmenopausal women and 60 elderly men to assess lean body mass and physical function; 7. Protocol 003, a Phase 1b study in 44 postmenopausal women; 8. Protocol G200502, a Phase 2b study in 159 men and postmenopausal women with cancer to assess lean body mass and physical function; 9.

The next series concerns BR-0001 tumors. Briefly: Microarray and AR ChIP-Seq of BR-0001 tumors. Format: in vivo, mice. On the procedure: Chromatin Immunoprecipitation Assay (ChIP). Proteins were cross-linked by incubation with 1% formaldehyde (final concentration) at 37° C. for 10 min. Tumors were homogenized using a probe hand-held homogenizer. The cells were washed with 1×PBS twice, scraped in 1 mL of PBS containing protease inhibitors ([[…] each of aprotinin, leupeptin, antipain, benzamidine HCl, and pepstatin/mL], 0.2 mM phenylmethylsulfonyl fluoride, and 1 mM sodium vanadate), pelleted, and resuspended in SDS lysis buffer (1% SDS, 10 mM EDTA, 50 mM Tris-HCl [pH 8.1]).
After lysis on ice for 10 min, the cell extract was sonicated (Branson sonifier 250) in a cold room eight times for 10 s each at constant duty cycle, with an output of 3 and with incubation on ice after every sonication. The debris was pelleted at 13,000 rpm for 10 min at 4° C., and the supernatant was diluted 10-fold with ChIP dilution buffer (0.01% SDS, 1.1% Triton X-100, 1.2 mM EDTA, 16.7 mM Tris HCl [pH 8.1], 167 mM NaCl). The proteins were precleared with 50 μL of 1:1 protein A-Sepharose beads in TE. […]
In the gene expression study described above, RNA was isolated from the BR-0001 TNBC tumors and the expression of genes in the entire genome was measured by microarray (Affymetrix, ST2.0 array). […]

In the next series the test system is MCF-7-AR tumors. Briefly: Phospho MAPK array of MCF-7-AR tumors. Further details: species or system mice. As to conditions: mouse, in vivo. On the procedure: Protein from MCF-7-AR tumors that were treated with vehicle or compound of Formula VIII were extracted and incubated with phospho MAPK array to determine the effect of compound of Formula VIII on phosphorylation of various kinases.

Turning to `C[C@](O)(COc1ccc(C#N)cc1)C(=O)Nc1ccc(C#N)c(C(F)(F)F)c1` [Formula IX, (S)—N-(4-Cyano-3-(trifluoromethyl)phenyl)-3-(4-cyanophenoxy)-2-hydroxy-2-methylpropanamide], the cell growth result in series [1] was “inhibited”. Besides, in series [2], the tolerability result is “generally well-tolerated”. In addition, in the series on BR-0001 tumors (mouse, in vivo), the “AR-occupied promoters with the gene up-regulated” value is given as 20%. The “promoters to which AR was recruited” value in the series on BR-0001 tumors (−5 kb to +1 kb) was found to be 176 promoters.
For `C[C@](O)(COc1ccc(C#N)cc1)C(=O)Nc1ccc(C#N)c(Cl)c1` [Formula VIII, (S)—N-(3-chloro-4-cyanophenyl)-3-(4-cyanophenoxy)-2-hydroxy-2-methylpropanamide], in the series on MCF-7-AR tumors, the JNK phosphorylation result is on record as “upregulated”.
